# From the supplement of paper PMC10307832
# Legend:
# Assay in all cases: relative viability (nuclei count vs DMSO), 5 days (fraction); higher = more cells survive
# Vismodegib + Tozasertib = compound: CS(=O)(=O)c1ccc(C(=O)Nc2ccc(Cl)c(-c3ccccn3)c2)c(Cl)c1 [Vismodegib] + Cc1cc(Nc2cc(N3CCN(C)CC3)nc(Sc3ccc(NC(=O)C4CC4)cc3)n2)n[nH]1 [Tozasertib] (partner 0.1 µM)
# How it was run: (§1)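 Lung cancer cell lines were pin-tool dosed in 1536-well plates on the day after seeding, with either a lone drug or a fixed anchor-drug dose plus five library-drug doses (not always all listed) in √10 steps. Nuclei were counted on 4× images after 5 days. Relative viability is the ratio of treated-well to vehicle-well nuclei counts, with each value a median of duplicate plates.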
# VE-821 + OSI-027 = compound: CS(=O)(=O)c1ccc(-c2cnc(N)c(C(=O)Nc3ccccc3)n2)cc1 [VE-821] + COc1cccc2cc(-c3nc([C@H]4CC[C@H](C(=O)O)CC4)n4ncnc(N)c34)[nH]c12 [OSI-027] (partner 0.5 µM)
# How it was run: as §1
# Ruxolitinib + Crizotinib = compound: N#CC[C@H](C1CCCC1)n1cc(-c2ncnc3[nH]ccc23)cn1 [Ruxolitinib] + C[C@@H](Oc1cc(-c2cnn(C3CCNCC3)c2)cnc1N)c1c(Cl)ccc(F)c1Cl [Crizotinib] (partner 1 µM)
# How it was run: as §1
# Ruxolitinib + Vorinostat = compound: N#CC[C@H](C1CCCC1)n1cc(-c2ncnc3[nH]ccc23)cn1 [Ruxolitinib] + O=C(CCCCCCC(=O)Nc1ccccc1)NO [Vorinostat] (partner 1 µM)
# How it was run: as §1
Cell Line,relative viability (Vismodegib + Tozasertib; first compound 0.08 µM),relative viability (Vismodegib + Tozasertib; first compound 0.253 µM),relative viability (Vismodegib + Tozasertib; first compound 0.8 µM),relative viability (Vismodegib + Tozasertib; first compound 2.53 µM),relative viability (Vismodegib + Tozasertib; first compound 8 µM),relative viability (VE-821 + OSI-027; first compound 0.08 µM),relative viability (VE-821 + OSI-027; first compound 0.253 µM),relative viability (VE-821 + OSI-027; first compound 0.8 µM),relative viability (VE-821 + OSI-027; first compound 2.53 µM),relative viability (VE-821 + OSI-027; first compound 8 µM),relative viability (Ruxolitinib + Crizotinib; first compound 0.08 µM),relative viability (Ruxolitinib + Crizotinib; first compound 0.253 µM),relative viability (Ruxolitinib + Crizotinib; first compound 0.8 µM),relative viability (Ruxolitinib + Crizotinib; first compound 2.53 µM),relative viability (Ruxolitinib + Crizotinib; first compound 8 µM),relative viability (Ruxolitinib + Vorinostat; first compound 0.08 µM),relative viability (Ruxolitinib + Vorinostat; first compound 0.253 µM),relative viability (Ruxolitinib + Vorinostat; first compound 0.8 µM),relative viability (Ruxolitinib + Vorinostat; first compound 2.53 µM),relative viability (Ruxolitinib + Vorinostat; first compound 8 µM)
CAL-12T,0.301,0.28,0.321,0.35,0.328,0.529,0.612,0.489,0.423,0.483,0.914,0.586,0.81,0.481,0.576,0.86,0.693,0.848,0.653,0.69
HARA,0.124,0.126,0.112,0.097,0.0937,0.75,0.434,0.497,0.76,0.392,1.02,1.02,1.08,1.09,0.687,0.594,0.576,0.566,0.488,0.512
NCI-H1666,0.564,0.684,0.591,0.585,0.7,0.903,0.785,0.948,0.936,0.703,1.03,0.974,0.986,0.878,0.909,1.05,1.07,1.1,1.08,1.14
NCI-H460,0.55,0.447,0.377,0.367,0.298,0.814,0.628,0.409,0.292,0.0463,0.985,1.02,1.01,0.803,0.447,0.847,0.774,0.819,0.599,0.516
NCI-H2087,0.258,0.306,0.212,0.185,0.234,0.537,0.576,0.515,0.683,0.495,0.928,1.07,1,0.919,0.615,0.868,–,0.752,0.686,0.705
NCI-H1355,0.568,0.557,0.613,0.577,0.548,0.443,0.346,0.375,0.442,0.307,1.08,1.01,1.06,0.839,0.907,0.69,0.564,0.691,0.6,0.536
NCI-H838,0.263,0.276,0.263,0.283,0.29,0.431,0.341,0.329,0.425,0.435,0.751,0.723,0.682,0.591,0.342,0.734,0.669,0.685,0.535,0.349
SW 1573,0.185,0.206,0.16,0.13,0.19,0.549,0.853,0.649,0.823,0.453,0.887,0.75,0.969,0.791,0.733,0.927,1.08,0.995,0.584,0.727
NCI-H2085,0.835,0.849,0.85,0.698,0.621,0.788,0.736,0.489,0.747,0.334,0.844,0.921,0.857,0.784,0.711,0.865,0.802,0.891,0.667,0.695
NCI-H1651,0.617,0.704,0.643,0.604,0.704,0.781,0.629,0.578,0.686,0.521,0.8,0.893,0.847,0.779,0.842,0.601,0.52,0.523,0.472,0.573
NCI-H1993,0.529,0.548,0.584,0.632,0.593,0.532,0.553,0.506,0.468,0.495,0.785,0.801,0.873,0.61,0.935,0.81,0.754,0.102,0.822,0.75
NCI-H2126,0.841,0.814,0.849,0.772,0.794,0.757,0.651,0.645,0.59,0.49,0.996,1.11,1.02,1.03,0.984,0.771,0.755,0.853,0.843,0.847
LC-2-ad,0.504,0.545,0.427,0.434,0.462,0.878,0.945,0.986,0.928,0.789,–,0.485,0.49,0.474,0.465,0.798,0.715,0.728,0.698,0.64
NCI-H647,0.253,0.205,0.265,0.188,0.227,0.748,0.786,0.676,0.509,0.376,1.18,1.12,1.13,0.852,0.524,0.694,0.729,0.683,0.538,0.286
LCLC-97TM1,0.22,0.284,0.218,0.239,0.273,0.564,0.506,0.669,0.786,0.668,0.361,0.393,0.487,0.472,0.275,0.741,0.604,0.734,0.722,0.63
LK-2,0.194,0.167,0.167,0.17,0.165,0.194,0.203,0.245,0.221,0.176,–,0.224,0.243,0.283,0.239,0.265,0.26,0.254,0.287,0.209
BEN,0.545,0.555,0.513,0.605,0.466,0.279,0.297,0.332,0.277,0.316,0.832,1.01,1.07,0.735,0.95,0.524,0.557,0.653,0.519,0.586
